# Assay results as given in PubChem BioAssay (NCI).
# Values joined by “and” are separate entries in the source; they are usually repeats but may differ in a detail not shown here. Equal values may be shown once.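 Step 1: Grow cells in 96-well plates. Step 2: Expose to compound for 48 hours at 5 concentrations. Step 3: Interpolate endpoints linearly; if unreached, use highest concentration. GI50: concentration for 50% inhibition of growth. Definition used: TGI = concentration required for complete inhibition of growth.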
# Legend:
# Assay in all cases: inhibition of tumour cell growth, NCI panel, 48 h
# [1] = system: M14 melanoma
# [2] = system: NCI-H522 lung
# [3] = system: COLO 205 colon
# [4] = system: SK-MEL-28 melanoma
# [5] = system: OVCAR-5 ovarian
# [6] = system: LXFL 529 NSCLC
# [7] = system: SNB-78 CNS
# [8] = system: SK-OV-3 ovarian
# [9] = system: BT-549 breast
# [10] = system: MDA-MB-231 breast
SMILES,TGI [1] [µM],TGI [2],TGI [3] [µM],TGI [4] [µM],TGI [5] [µM],TGI [6] [µM],TGI [7] [µM],TGI [8],GI50 [2] [µM],GI50 [3] [µM],GI50 [4] [µM],TGI [9] [µM],GI50 [5] [µM],TGI [10] [µM],GI50 [8] [µM],GI50 [1] [µM],GI50 [9] [µM],GI50 [10] [µM]
c1ccc2c(c1)Cc1c(Cc3csc4ccccc34)ccc3cccc-2c13,> 100,> 100 µM,> 100,> 100,> 100,> 100,> 100,,,,,,,,,,,
COc1cc(/C=C(\NC(=O)c2ccccc2)c2nc3ncncc3[nH]2)cc(OC)c1OC,> 100,> 100 µM,> 100,> 100,> 100,> 100,> 100,> 100 µM,,,,,,,,,,
COc1ccc(/C=C/C(=O)c2c(-c3ccccc3)nn(C)c(=O)c2N2CCOCC2)cc1,> 100,> 100 µM,> 100,> 100,,> 100,,> 100 µM,,,,,,,,,,
CC1(C)c2ccccc2N2O[C@@H]3C(=O)N(c4ccccc4)C(=O)[C@@H]3C21c1ccccc1 (stereo partly specified),> 100,> 100 µM,> 100,> 100,,> 100,> 100,> 100 µM,,,,,,,,,,
CCc1cc2c(O)c(c1)Cc1cc(CC)cc(c1O)Cc1cc(CC)cc(c1O)Cc1cc(CC)cc(c1O)Cc1cc(CC)cc(c1O)Cc1cc(CC)cc(c1O)Cc1cc(CC)cc(c1O)C2,> 100,> 100 µM,> 100,> 100,> 100,> 100,> 100,,,,,,,,,,,
Nc1nc2c(-c3ccc([N+](=O)[O-])cc3)nnn2c2ccccc12,> 100,,> 100,> 100,> 100,> 100,> 100,> 100 µM,,,,,,,,,,
O=C1NC2(CCCCC2)C(=O)N1CCN(CCCl)CCCl,> 25,> 25 µM and 163 µM,> 250,> 114,> 250,,> 245,> 25 µM and 250 µM,> 25,> 25,> 25,> 25,> 25,> 25,> 25,,,
C(=C\C(Sc1ccccc1)c1ccccc1)/NNC1=NC(c2ccccc2)C(c2ccccc2)=NN1 (stereo unspecified),> 100,> 100 µM,> 100,> 100,> 100,,> 100,> 100 µM,,,,,,,,,,
COc1ccc(OC)c(/C=C2\CCc3ccccc3C2=O)c1,16.3,4.25 µM,13.5,28.1,25.5,31.8,,18.8 µM,,,,,,,,,,
O=C(CC1C(=O)Nc2ccccc2S1(=O)=O)Nc1ccc(Cl)cc1 (stereo unspecified),> 100,36.4 µM,,74.5,> 100,78.2,93.8,,,,,,,,,,,
NC(Cc1c[nH]c2ccc([N+](=O)[O-])cc12)C(=O)O (stereo unspecified),> 100,> 100 µM,> 100,> 100,> 100,,,> 100 µM,,,,> 100,,> 100,,,,
Cc1ccc(/C=C/C(=O)c2sc(-n3nc(-c4ccccc4)cc3-c3ccccc3)nc2C)cc1,,> 100 µM,> 100,> 100,> 100,,> 100,> 100 µM,,,,,,,,,,
O=C1C=C2CCCC2C(C(=O)O)(C(=O)O)C1 (stereo unspecified),> 100,> 100 µM,> 100,> 100,,> 100,> 100,> 100 µM,,,,,,,,,,
COc1cc([C@@H]2c3cc4c(cc3[C@@H](OC(=O)c3cccc(N)c3)C3COC(=O)[C@@H]32)OCO4)cc(OC)c1O (stereo partly specified),28.3,,> 45.6,> 100,60.1,51,> 100,> 75.2 µM,,,,,,,,,,
Cc1ccc(N=C2N=C(N3CC(C)OC(C)C3)c3ccccc32)cc1 (stereo unspecified),56.5,,> 100,87.2,> 100,57.6,> 100,,,,,,,,,,,
CCN(CC)CCN1c2nc3ccccc3cc2Sc2cc3ccccc3nc21,3.38,4.1 µM,2.85,3.49,4.55,,,12.9 µM,1.65,1.35,1.8,12.2,1.65,4.03,3.5,1.64,2.83,1.58
CCCc1nc(Cl)c(Cl)c(Cl)n1,> 76.1,30.5 µM,> 100,> 100,97.9,,,> 100 µM,,,,77.9,,67.9,,,,
CCCCNC(=S)OCCC(C)CCCC(C)C (stereo unspecified),> 100,,,> 100,> 100,> 100,> 100,> 100 µM,,,,,,,,,,
CCCCCCCCCCNCCSS(=O)(=O)O,2.64,4.31 µM,27.2,4.84,4.24,,,7.58 µM,2.09,13,1.65,21.8,2.27,3.69,2.6,0.425,6.15,1.77
COc1cc2c(c(OC)c1OC)-c1ccc(SC)c(=O)cc1[C@@H](NC(=O)C(F)(F)F)CC2,42.5,< 0.01 µM,< 0.0631,17.8,> 100,> 100,,,,,,> 100,,> 100,,,,
Cc1ccc(Cl)c(NS(=O)(=O)c2ccc(-c3cnc(C4CC4)o3)cc2)c1,> 42.6,20.3 µM,1.36,> 58.5,> 100,,,68.8 µM,0.0566,0.154,2.77,14.8,0.439,> 100,3.31,0.0698,0.299,0.651
[N-]=[N+]=NCCCn1c2c(c3ccc([N+](=O)[O-])cc3c1=O)C(=O)c1cc(-c3ccccc3)ccc1-2,> 100,> 100 µM,> 100,> 100,> 100,,,> 100 µM,> 100,> 100,> 100,> 100,> 100,> 100,> 100,> 100,> 100,> 100
